From US12202835B2, “Substituted aromatic ring-linked dioxinoquinazolines and dioxinoquinolines as kinase inhibitors” (BEIJING SCITECH-MQ PHARMACEUTICALS LIMITED, priority 2018, dated 2025)
pIC50: −log10 of the molar value.

How the values were obtained:
c-MET kinase = c-MET kinase (Homo sapiens (Human), UniProt P08581); experiment: Assay of small molecular compounds for inhibiting the activity of c-MET kinase (LANCE TR-FRET); format: biochemical; settings: read-out: CMET IC50
How it was run: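 LANCE TR-FRET assay with c-MET at 1 nM final after a 5 min room-temperature preincubation with compound (11-point, 3-fold series, 2500–0.042 nM final, 4% DMSO). ULight-JAK-1 (Tyr1023) peptide (100 nM final) and ATP (10 μM final) reacted 60 min in the dark. Inhibition was taken relative to controls, then IC50 fitted.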

MER kinase = MER kinase (Homo sapiens (Human), UniProt Q12866); experiment: Assay of small molecular compounds for inhibiting the activity of MER kinase (LANCE TR-FRET); format: biochemical
Chain of MER kinase (Q12866 21-999): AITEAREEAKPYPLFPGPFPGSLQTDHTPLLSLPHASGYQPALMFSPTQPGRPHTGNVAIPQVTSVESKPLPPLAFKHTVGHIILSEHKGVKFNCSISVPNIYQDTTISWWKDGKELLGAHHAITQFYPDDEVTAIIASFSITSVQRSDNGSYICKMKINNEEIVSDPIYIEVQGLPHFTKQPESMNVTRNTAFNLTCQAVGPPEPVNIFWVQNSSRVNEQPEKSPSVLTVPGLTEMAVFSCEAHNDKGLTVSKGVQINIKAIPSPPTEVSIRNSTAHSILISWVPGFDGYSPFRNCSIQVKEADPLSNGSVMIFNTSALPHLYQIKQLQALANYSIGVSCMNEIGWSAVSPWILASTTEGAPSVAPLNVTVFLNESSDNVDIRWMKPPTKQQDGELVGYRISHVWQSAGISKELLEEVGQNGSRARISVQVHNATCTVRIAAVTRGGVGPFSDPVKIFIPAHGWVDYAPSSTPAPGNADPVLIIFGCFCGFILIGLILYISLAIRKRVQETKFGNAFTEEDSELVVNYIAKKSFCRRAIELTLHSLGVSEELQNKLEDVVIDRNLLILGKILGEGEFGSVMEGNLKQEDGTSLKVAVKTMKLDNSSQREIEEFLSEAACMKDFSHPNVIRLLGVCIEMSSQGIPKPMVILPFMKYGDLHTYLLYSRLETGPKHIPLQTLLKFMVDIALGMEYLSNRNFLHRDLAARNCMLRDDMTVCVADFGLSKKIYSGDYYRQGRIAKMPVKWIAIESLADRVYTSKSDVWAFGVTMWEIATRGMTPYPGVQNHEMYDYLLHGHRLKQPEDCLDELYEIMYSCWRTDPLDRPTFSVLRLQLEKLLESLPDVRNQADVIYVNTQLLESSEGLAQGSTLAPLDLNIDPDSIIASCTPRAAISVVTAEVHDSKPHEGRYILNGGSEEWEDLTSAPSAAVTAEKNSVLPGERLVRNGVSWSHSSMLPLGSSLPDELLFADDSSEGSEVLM
How it was run: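 MER kinase preincubated 5 min at RT with compound (11 points, 0.042-2500 nM final), then ULight-poly GT and ATP added (4× stocks 200 nM and 20 μM) for 60 min at RT, 1% DMSO. Phosphorylation detected by LANCE TR-FRET; IC50 from % inhibition versus controls.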

Chain of c-MET kinase (P08581 25-1390): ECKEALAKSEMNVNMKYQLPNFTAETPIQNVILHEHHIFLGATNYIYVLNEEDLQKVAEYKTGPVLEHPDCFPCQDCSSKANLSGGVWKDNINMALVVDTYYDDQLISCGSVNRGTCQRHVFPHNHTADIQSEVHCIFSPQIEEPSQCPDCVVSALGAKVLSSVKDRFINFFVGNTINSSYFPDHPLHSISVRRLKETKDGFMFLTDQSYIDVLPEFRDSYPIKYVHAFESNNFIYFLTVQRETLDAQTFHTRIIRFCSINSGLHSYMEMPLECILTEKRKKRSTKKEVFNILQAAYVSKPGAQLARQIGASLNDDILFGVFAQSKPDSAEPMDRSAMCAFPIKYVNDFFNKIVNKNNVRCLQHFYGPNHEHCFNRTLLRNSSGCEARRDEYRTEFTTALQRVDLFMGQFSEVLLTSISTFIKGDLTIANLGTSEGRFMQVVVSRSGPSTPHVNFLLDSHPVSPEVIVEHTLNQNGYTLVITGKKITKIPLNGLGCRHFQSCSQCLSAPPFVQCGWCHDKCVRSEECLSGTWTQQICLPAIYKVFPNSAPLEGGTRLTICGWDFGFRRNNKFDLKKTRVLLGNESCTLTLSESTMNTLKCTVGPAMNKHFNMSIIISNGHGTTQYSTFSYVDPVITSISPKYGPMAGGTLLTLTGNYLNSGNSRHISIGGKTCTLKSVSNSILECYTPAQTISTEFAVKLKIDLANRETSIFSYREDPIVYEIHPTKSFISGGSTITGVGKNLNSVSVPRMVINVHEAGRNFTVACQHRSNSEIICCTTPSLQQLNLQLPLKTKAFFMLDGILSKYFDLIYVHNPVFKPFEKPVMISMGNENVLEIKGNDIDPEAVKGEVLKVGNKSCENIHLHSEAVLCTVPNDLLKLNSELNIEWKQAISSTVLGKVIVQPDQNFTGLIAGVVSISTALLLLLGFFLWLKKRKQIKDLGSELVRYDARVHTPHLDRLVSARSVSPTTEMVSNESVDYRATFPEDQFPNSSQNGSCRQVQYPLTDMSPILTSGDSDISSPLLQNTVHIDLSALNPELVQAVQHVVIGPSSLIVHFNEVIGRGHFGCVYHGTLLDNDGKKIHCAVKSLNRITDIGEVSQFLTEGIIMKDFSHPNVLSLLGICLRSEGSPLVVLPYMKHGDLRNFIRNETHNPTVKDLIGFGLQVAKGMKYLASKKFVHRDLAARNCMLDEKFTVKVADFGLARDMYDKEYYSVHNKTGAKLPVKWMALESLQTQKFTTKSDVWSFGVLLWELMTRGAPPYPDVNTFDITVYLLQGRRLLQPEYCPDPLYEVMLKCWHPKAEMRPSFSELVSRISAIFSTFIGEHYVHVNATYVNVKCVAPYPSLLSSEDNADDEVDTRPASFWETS

Compound | pIC50 (c-MET kinase) | pIC50 (MER kinase)
CCOc1ccn(-c2ccc(F)cc2)c(=O)c1C(=O)Nc1ccc(Oc2ccnc3cc(OCCCN4CCS(=O)(=O)CC4)c4c(c23)OCCO4)c(F)c1 [Example 51, N-(4-((5-(3-(1,1-dioxidothiomorpholino)propoxy)-2,3-dihydro-[1,4]dioxino[2,3-f]quinolin-1 0-yl)oxy)-3-fluorophenyl)-4-ethoxy-1-(4-fluorophenyl)-2-oxo-1,2-dihydropyridine-3-carboxamide] | ≥ 7.30 | ≥ 7.30
CCOc1cn(-c2ccc(F)cc2C)nc1C(=O)Nc1ccc(Oc2ncnc3cc(OCCCN4CCOCC4)c4c(c23)OCCO4)c(F)c1 [Example 12, 1-(4-fluoro-2-methylphenyl)-N-(3-fluoro-4-((5-(3-morpholinopropoxy)-2,3-dihydro-[1,4]dioxino[2,3-f]quinazolin-10-yl)oxy)phenyl)-4-ethoxy-1H-pyrazole-3-carboxamide] | ≥ 7.30 | 6.30 to 7.30
CCOc1ccn(-c2ccc(F)cc2)c(=O)c1C(=O)Nc1ccc(Oc2ccnc3cc(OCCO)c4c(c23)OCCO4)c(F)c1 [Example 53, N-(4-((5-(2-hydroxyethoxy)-2,3-dihydro-[1,4]dioxino[2,3-f]quinolin-10-yl)oxy)-3-fluorophenyl)-4-ethoxy-1-(4-fluorophenyl)-2-oxo-1,2-dihydropyridine-3-carboxamide] | ≥ 7.30 | ≥ 7.30
CCOc1ccn(-c2ccc(F)cc2)c(=O)c1C(=O)Nc1ccc(Oc2ccnc3cc(OCCCOC)c4c(c23)OCCO4)c(F)c1 [Example 55, N-(4-((5-(3-methoxypropoxy)-2,3-dihydro-[1,4]dioxino[2,3-f]quinolin-10-yl)oxy)-3-fluorophenyl)-4-ethoxy-1-(4-fluorophenyl)-2-oxo-1,2-dihydropyridine-3-carboxamide] | ≥ 7.30 | ≥ 7.30
CCOc1ccn(-c2ccc(F)cc2)c(=O)c1C(=O)Nc1ccc(Oc2ccnc3cc(OC4CCOCC4)c4c(c23)OCCO4)c(F)c1 [Example 66, N-(4-((5-((tetrahydropyran-4-yl)oxy)-2,3-dihydro-[1,4]dioxino[2,3-f]quinolin-10-yl)oxy)-3-fluorophenyl)-4-ethoxy-1-(4-fluorophenyl)-2-oxo-1,2-dihydropyridine-3-carboxamide] | ≥ 7.30 | ≥ 7.30
CCOc1ccn(-c2ccc(F)cc2)c(=O)c1C(=O)Nc1ccc(Oc2ccnc3cc(OCC4CC4)c4c(c23)OCCO4)c(F)c1 [Example 59, N-(4-((5-(cyclopropylmethoxy)-2,3-dihydro-[1,4]dioxino[2,3-f]quinolin-10-yl)oxy)-3-fluorophenyl)-4-ethoxy-1-(4-fluorophenyl)-2-oxo-1,2-dihydropyridine-3-carboxamide] | ≥ 7.30 | ≥ 7.30
CCn1cc(C(=O)Nc2ccc(Oc3ccnc4cc(OCCOC)c5c(c34)OCCO5)c(F)c2)c(=O)n(-c2ccc(F)cc2)c1=O [Example 44, N-(3-fluoro-4-((5-(2-methoxyethoxy)-2,3-dihydro-[1,4]dioxino[2,3-f]quinolin-10-yl)oxy)phenyl)-3-(4-fluorophenyl)-1-ethyl-2,4-dioxo-1,2,3,4-tetrahydropyrimidine-5-carboxamide] | ≥ 7.30 | ≥ 7.30

Other lines, results leading:

pIC50 (c-MET kinase) | pIC50 (MER kinase) | Compound
≥ 7.30 | ≥ 7.30 | CC(C)n1cc(C(=O)Nc2ccc(Oc3ccnc4cc(OCCCO)c5c(c34)OCCO5)c(F)c2)c(=O)n(-c2ccc(F)cc2)c1=O [Example 79, N-(3-fluoro-4-((5-(3-hydroxypropoxy)-2,3-dihydro-[1,4]dioxino[2,3-f]quinolin-10-yl)oxy)phenyl)-3-(4-fluorophenyl)-1-isopropyl-2,4-dioxo-1,2,3,4-tetrahydropyrimidine-5-carboxamide]
≥ 7.30 | ≥ 7.30 | COCCCOc1cc2nccc(Oc3ccc(NC(=O)c4cn(C)c(=O)n(-c5ccc(F)cc5)c4=O)cc3F)c2c2c1OCCO2 [Example 80, N-(3-fluoro-4-((5-(3-methoxypropoxy)-2,3-dihydro-[1,4]dioxino[2,3-f]quinolin-10-yl)oxy)phenyl)-3-(4-fluorophenyl)-1-methyl-2,4-dioxo-1,2,3,4-tetrahydropyrimidine-5-carboxamide]
6.30 to 7.30 | ≥ 7.30 | CC(C)n1cc(C(=O)Nc2ccc(Oc3ccnc4cc(OCCCN5CCS(=O)(=O)CC5)c5c(c34)OCCO5)c(F)c2)c(=O)n(-c2ccc(F)cc2)c1=O [Example 76, N-(3-fluoro-4-((5-(3-(1,1-dioxidothiomorpholino)propoxy)-2,3-dihydro-[1,4]dioxino[2,3-f]quinolin-10-yl)oxy)phenyl)-3-(4-fluorophenyl)-1-isopropyl-2,4-dioxo-1,2,3,4-tetrahydropyrimidine-5-carboxamide]
≥ 7.30 | ≥ 7.30 | CC(=O)N1CCN(CCCOc2cc3nccc(Oc4ccc(NC(=O)c5cn(C(C)C)c(=O)n(-c6ccc(F)cc6)c5=O)cc4F)c3c3c2OCCO3)CC1 [Example 75, N-(3-fluoro-4-((5-(3-(4-acetylpiperazin-1-yl)propoxy)-2,3-dihydro-[1,4]dioxino[2,3-f]quinolin-10-yl)oxy)phenyl)-3-(4-fluorophenyl)-1-isopropyl-2,4-dioxo-1,2,3,4-tetrahydropyrimidine-5-carboxamide]
≥ 7.30 | ≥ 7.30 | CC(C)n1cc(C(=O)Nc2ccc(Oc3ccnc4cc(OCCCN5CCCC5)c5c(c34)OCCO5)c(F)c2)c(=O)n(-c2ccc(F)cc2)c1=O [Example 77, N-(3-fluoro-4-((5-(3-(pyrrolidin-1-yl)propoxy)-2,3-dihydro-[1,4]dioxino[2,3-f]quinolin-10-yl)oxy)phenyl)-3-(4-fluorophenyl)-1-isopropyl-2,4-dioxo-1,2,3,4-tetrahydropyrimidine-5-carboxamide]
